# What was measured:
# [1] = system: inflammatory cytokines (IL-1β, IL-6, IL-8, and TNF-α); test: Gene expression experiment for inflammatory cytokines (Q-PCR) in LPS-induced HCEC; type: cell-based, Human; details: LPS 500 ng/ml induced HCEC, 2 hours with test material; compared with the other groups
# Protocol: In this experiment, firstly, cultivate the Human Corneal Epithelial Cells (HCEC) for 48 hours, then utilize Lipopolysaccharide (LPS) at concentration of 500 ng/ml to induce HCEC for 3 hours, to make it to produce inflammatory reaction. Afterwards, add in the compound of EGCG and HA to cultivate with HCEC for 2 hours. The Gene Expression Experiment to evaluate Inflammatory cytokines was conducted for 3 days, and the samples for this experiment were obtained by collecting these cells on the third day. Firstly, utilize Trizol reagent to extract Ribonucleic Acid (RNA) of these cells, and then utilize the High-Capacity cDNA Reverse Transcription Kits made by manufacturer ABi to perform Reverse Transcription […] (RT-PCR), to synthesis the complementary deoxyribonucleic acid (cDNA). Subsequently, utilize the TagManR Fast Universal Master Mix (2X) made by manufacturer ABi, to perform Quantitative Real-Time PCR (Q-PCR) on the inflammatory cytokines (IL-1β, IL-6, IL-8, and TNF-α), to detect the gene expression of the inflammation cytokines (IL-1β, IL-6, IL-8, and TNF-α).
# [2] = system: inflammation cytokines (IL-1β, IL-6, IL-8, and TNF-α); test: Inflammation cytokines protein expression experiment (ELISA of cornea protein); type: in vivo; details: rabbit, BAC-induced dry eye, treatment twice a day for 2 weeks
# Text: In this experiment, firstly, a Benzalkonium Chloride (BAC) is dipped onto the eyes of a rabbit 3 times a day for 3 weeks, to induce the rabbit eyes to produce inflammation, and to cause it to have symptoms of moderate dry eye syndrome. Then, utilize various combined compounds of artificial tear solution, HA, and EGCG to proceed with treatments, twice a day for 2 weeks. Then, extract the protein from the rabbit's cornea to perform Enzyme-Linked Immunosorbent Assay (ELISA), to detect the protein expression of the inflammation cytokines (IL-1β, IL-6, IL-8, and TNF-α), and to observe and determine whether the inflammation cytokines were reduced, through treatment of various compounds of artificial tear solution, HA, and EGCG
compound,measurement,setting,value
"O=C(O[C@@H]1Cc2c(O)cc(O)cc2O[C@@H]1c1cc(O)c(O)c(O)c1)c1cc(O)c(O)c(O)c1 [EGCG, Epigallocatechin gallate]","Relative Transcription Ratios of the 4 inflammation factors (IL-1β, IL-6, IL-8, TNF-α)",[1],does have anti-inflammatory effect
same,"concentration of inflammatory cytokines (IL-1β, IL-6, IL-8, and TNF-α) in cornea",[2],has the anti-inflammatory effect
